US4877893A, “Process for the preparation of 2-(O-alkyl)-2-thio-1,3,2-oxathiophospholanes” (priority 1987, dated 1989)

Legend:
Test in all cases: Fungicidal effect on infected agar nutrient media, colony diameter
Format in all cases: cell-based
[1] = tested on: Sclerotinia sclerotinia; conditions: 3rd day after treatment, untreated control 41.7
Method: Agar nutrient media (Diameter 70 MM, thickness 10 mm) infected by Sclerotonia sclerotinia suspension are treated with 20 EC formulations prepared according to Example 27 and comprising 1, 10, 100 and 1000 ppm, respectively of the active ingredient of the Formula I. The fungicidal effect of the compositions is evaluated on the 3rd day after treatment by measuring the diameter of the Fungi colonies.

[2] = tested on: Penicillium cyclopium; conditions: 7th day after treatment, untreated 26.5
Outline: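 Agar media (70 mm diameter, 10 mm thick) infected with Penicillium cyclopium were treated with EC formulations at 1, 10, 100 and 1000 ppm active ingredient. Fungal colony diameter was measured on day 7 after treatment.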

[3] = tested on: Alternaria tenuis; conditions: 5th day after treatment, untreated control 36.8
Outline: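 Agar media (70 mm diameter, 10 mm thick) infected with Alternaria tenuis, treated with EC formulations at 1, 10, 100 and 1000 ppm active ingredient. Fungicidal effect read on day 5 after treatment as fungal colony diameter.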

Row | Compound | Diameter of colony (mm) ([1]; 1 ppm) | Diameter of colony (mm) ([1]; 10 ppm) | Diameter of colony (mm) ([1]; 100 ppm) | Diameter of colony (mm) ([1]; 1000 ppm) | Diameter of colony (mm) ([2]; 1 ppm) | Diameter of colony (mm) ([2]; 10 ppm) | Diameter of colony (mm) ([2]; 100 ppm) | Diameter of colony (mm) ([2]; 1000 ppm) | Diameter of colony (mm) ([3]; 1 ppm) | Diameter of colony (mm) ([3]; 10 ppm) | Diameter of colony (mm) ([3]; 100 ppm) | Diameter of colony (mm) ([3]; 1000 ppm)
1 | CCOP1(=S)OCCS1 (stereo not drawn) [Compound 55] | 33.1 mm | 28.2 mm | 0 mm | 0 mm | 21.9 mm | 18.1 mm | 8.0 mm | 0 mm | 32.4 mm | 23.5 mm | 5.2 mm | 0 mm
2 | S=P1(OCCS)OCCS1 (stereo not drawn) [Compound 56] | 40.2 mm | 31.5 mm | 1.2 mm | 0 mm | 24.6 mm | 18.1 mm | 8.8 mm | 0 mm | 32.8 mm | 22.1 mm | 6.0 mm | 0 mm
3 | CC(C)OP1(=S)OCCS1 (stereo not drawn) [Compound 57] | 37.8 mm | 25.9 mm | 0 mm | 0 mm | 18.7 mm | 20.0 mm | 6.2 mm | 0 mm | 31.7 mm | 26.0 mm | 7.1 mm | 0 mm
4 | CCCCOP1(=S)OCCS1 (stereo not drawn) [Compound 58] | 36.2 mm | 29.1 mm | 1.9 mm | 0 mm | 21.9 mm | 16.1 mm | 8.4 mm | 0 mm | 32.7 mm | 23.9 mm | 7.5 mm | 0 mm
5 | CCCCOP1(=S)OCCS1 (stereo not drawn) [Compound 59, 2-(0-n-butyl)-2-thio-1,3,2-oxathiophospholane] | 34.3 mm | 28.5 mm | 4.0 mm | 0 mm | 25.0 mm | 18.7 mm | 7.6 mm | 0 mm | 34.0 mm | 24.1 mm | 5.6 mm | 0 mm
6 | CCCCOP1(=S)OC(C)CS1 (stereo not drawn) [Compound 60, 2-(0-n-butyl)-2-thio-5-methyl-1,3,2-oxathiophospholane] | 33.7 mm | 30.0 mm | 3.8 mm | 0 mm | 23.6 mm | 19.9 mm | 8.2 mm | 0 mm | 33.3 mm | 25.5 mm | 6.8 mm | 0 mm
7 | CCCCOP1(=S)OCC(C)S1 (stereo not drawn) [Compound 61, 2-(0-n-butyl)-2-thio-4-methyl-1,3,2-oxathiophospholane] | 35.6 mm | 28.9 mm | 2.7 mm | 0 mm | 24.0 mm | 19.0 mm | 8.3 mm | 0 mm | 36.2 mm | 24.3 mm | 6.2 mm | 0 mm
8 | CCCC(C)OP1(=S)OCCS1 (stereo not drawn) [Compound 62, 2-(0-1'-methyl-n-butyl)-2-thio-1,3,2-oxathiophospholane] | 37.0 mm | 30.2 mm | 3.9 mm | 0 mm | 26.1 mm | 20.2 mm | 7.4 mm | 0 mm | 34.1 mm | 25.7 mm | 6.9 mm | 0 mm
9 | CCCCOP1(=S)OC(C)C(C)S1 (stereo not drawn) [Compound 63, 2-(0-n-butyl)-2-thio-4,5-dimethyl-1,3,2-oxathiophospholane] | 34.2 mm | 29.9 mm | 3.1 mm | 0 mm | 24.8 mm | 18.5 mm | 8.5 mm | 0 mm | 35.0 mm | 24.2 mm | 6.7 mm | 0 mm
10 | CCCCOP1(=S)OC(C)CS1 (stereo not drawn) [Compound 64] | 36.9 mm | 28.7 mm | 3.0 mm | 0 mm | 26.0 mm | 20.0 mm | 8.7 mm | 0 mm | 34.6 mm | 26.1 mm | 4.5 mm | 0 mm
11 | CCCCC(C)OP1(=S)OC(C)C(C)S1 (stereo not drawn) [Compound 65] | 35.8 mm | 30.1 mm | 3.7 mm | 0 mm | 24.6 mm | 19.1 mm | 7.5 mm | 0 mm | 33.8 mm | 25.3 mm | 6.6 mm | 0 mm
12 | CCCC(C)OP1(=S)OC(C)C(C)S1 (stereo not drawn) [Compound 66] | 34.8 mm | 28.8 mm | 4.0 mm | 0 mm | 25.0 mm | 18.6 mm | 7.5 mm | 0 mm | 34.5 mm | 24.4 mm | 7.0 mm | 0 mm
13 | CC(C)CCOP1(=S)OCCS1 (stereo not drawn) [Compound 67] | 36.3 mm | 29.6 mm | 3.6 mm | 0 mm | 25.1 mm | 19.3 mm | 7.0 mm | 0 mm | 35.4 mm | 23.8 mm | 5.3 mm | 0 mm
